Measured values as given in patent publication US20060142202A1, “Compositions and methods for targeted delivery of immune response modifiers” (3M Innovative Properties Company, priority 2000, published 2006).

| melting point [°C] | Structure (SMILES) |
| --- | --- |
| 203 to 204.6 | CCOCc1nc2c(N)nc3ccccc3c2n1CC(C)(C)NC(=O)CCC(=O)NN [IRM5, N-{2-[4-Amino-2-(ethoxymethyl)-1H-imidazo[4,5-c]quinolin-1-yl]-1,1-dimethylethyl}-4-hydrazino-4-oxobutanamide] |
| 127 to 128 | CCCc1nc2c(N)nc3cc(OCCCCCCNC(=O)c4ccc(N=[N+]=[N-])cc4O)ccc3c2s1 [IRM9, N-{6-[(4-Amino-2-propyl[1,3]thiazolo[4,5-c]quinolin-7-yl)oxy]hexyl}-4-azido-2-hydroxybenzamide] |
